Measured values: US10837044B2, “Automated method for analyzing and interpreting an antimicrobial susceptibility” (FONDATION MEDITERRANEE INFECTION, priority 2014, dated 2020)

How the values were obtained:
Experiment in all cases: antibiogram by diffusion on Mueller-Hinton agar with antibiotic wafers
Format in all cases: cell-based
Entercoccus faecalis = details: Table C1, six wafers, disk loads of Table B
Description: (§1) The inoculum was prepared by making a suspension of bacteria directly from colonies put into solution in tubes of sterile water so that the solution presented accurate opacity as determined with a spectrophotometer equivalent to the opacity of a 0.5 standard in the McFarland range. This bacterial suspension concentration is standardized since a more concentrated inoculum would lead to smaller diameters for the inhibition zone, and vice versa.
(§2) The inoculum corresponds to concentrations of about 10^8 CFU/mL for Escherichia coli, Klebsiella pneumoniae, Proteus mirabilis, Klebsiella oxytoca, Enterobacter cloacea, Enterobacter aerogenes, Entercoccus faecalis, Pseudomonas aeruginosa, Staphylococcus aureus, and Staphylococcus epidermidis. These are the ten species bacteria that are encountered the most frequently in human pathologies.
(§3) 1.2) The bacterial sample was deposited on a solid culture medium in a petri dish having a diameter of 90 mm or in a square dish having a side of 120 mm, the medium being constituted by a Mueller-Hinton agar specific for (EUCAST) antibiograms. Ideally, it should be used in the 15 minutes (min) following preparation of the suspension.
(§4) Seeding was done by the method of diffusion on an agar medium by flooding in which excess bacterial suspension was added to the Mueller-Hinton agar. After homogenizing, excess liquid was discarded in order to avoid over-inoculating the dishes. It is necessary to wait beforehand for the surface of the agar to be dry in order to eliminate any trace of moisture encouraging bacterial invasion.
(§5) The disks of the antibiotic wafers were deposited within 15 min after inoculating the agar. The antibiotic impregnated disks were deposited using an automatic dispenser that placed the disks firmly on the surface of the inoculated and dried agar. The number of disks deposited per dish was limited because of inhibition zone overlap and in order to limit interference between antibiotics. It is important for the inhibition diameters to be measurable. The antibiograms were then incubated at 37° C. for 18 hours (h) to 24 h.
(§6) The antibiotic wafers were made of high quality absorbent paper with a diameter of 6 mm and they were impregnated with antibiotics at concentrations in the range 1 micrograms (μg) to 300 μg approximately, depending on the antibiotic.
(§7) In the examples below, reference disks were used as sold by the suppliers i2a (Montpellier, France), BD (Becton Dickinson, USA), Bio-Rad (Hercules, USA), Biomerieux (Marcy l′Etoile, France) containing the following antibiotics and carrying the following codes and the following doses: AMX (amoxicillin) 25 μg: AMC (amoxicillin-clavulanic acid) 20 μg-10 μg; GM for gentamicin, 15 μg; SXT (trimethoprim-sulfamethoxazole) 1.25/23.75 μg; TIC (ticarcillin) 75 μg; TCC (ticarcillin-clavulanic acid) […]; TZP (piperacillin-tazobactam) 75/10 μg; CAZ (ceftazidime) 30 μg; IMP or IPM (imipeneme) 10 μg; COL (colistin) 50 μg; FOX (cefoxitine) 30 μg; VAN (vancomycin) 30 μg; TEC (teicoplanin) 30 μg; CLI or DA (clindamycin) 2 μg; CRO (ceftriaxone) 30 μg; CIP (ciprofloxacin) 5 μg; OFX (ofloxacin) 5 μg; CTX (cefotaxime) 5 μg; AN or AK (amikacin) 30 μg; TM (tobramycin) 10 μg; FOX (cefoxitine) 30 μg; ATM (aztreonam) 30 μg; ERT (ertapenem) 10 μg; FF (fosfomycin) 200 μg; DO (doxycycline) 30 μg; K (kanamycin) 1000 μg; L (lincomycin) 15 μs; LNZ (linezolid) 10 μg; AN (nalidixic acid) 30 μg; NOR (norfloxacin) 10 μg; PT (pristinamycin) 15 μg; RA (rifampicin) 5 μg; and E (erythromycin) 15 μg.

Escherichia coli = details: for resistance (I, R) or sensitivity (S): Table C1, disk loads of Table B; for resistant (I/R) or sensitive (S): Table C2, square dish
Description: as §1, §2, §3, §4, §5, §6, §7

Klebsiella pneumoniae = details: for resistant (I/R) or sensitive (S): Table C2, sixteen wafers, square dish; for resistance (I, R) or sensitivity (S): Table C1, six wafers, disk loads of Table B
Description: as §1, §2, §3, §4, §5, §6, §7

Proteus mirabilis = details: Table C1, six wafers, disk loads of Table B
Description: as §1, §2, §3, §4, §5, §6, §7

Staphylococcus aureus = details: for resistance (I, R) or sensitivity (S): Table C1, six wafers, disk loads of Table B; for resistant (I/R) or sensitive (S): Table C2, sixteen wafers, square dish
Description: as §1, §2, §3, §4, §5, §6, §7

[1] = system: Staphylococcus epidermidis; details: Table C1, six wafers, disk loads of Table B
Description: as §1, §2, §3, §4, §5, §6, §7

Enterobacter aerogenes = details: Table C1, six wafers, disk loads of Table B
Description: as §1, §2, §3, §4, §5, §6, §7

Enterobacter cloacea = details: Table C1, six wafers, disk loads of Table B
Description: as §1, §2, §3, §4, §5, §6, §7

Klebsiella oxytoca = details: Table C1; K. oxytoca phenotype Wild; six wafers, disk loads of Table B
Description: as §1, §2, §3, §4, §5, §6, §7

[2] = E. coli phenotype Cephalosporinase + R to fluoroquinolones + R to cotrimoxazole + partial R to aminosides, sixteen wafers
[3] = E. coli phenotype Hl penicillinase + R to fluoroquinolones + R to cotrimoxazole + partial R to aminosides, sixteen wafers
[4] = E. coli phenotype Wild, sixteen wafers in a rectangular grid
[5] = K. pneumoniae phenotype Cephalosporinase + R to aminosides + R to cotrimoxazole
[6] = S. aureus phenotype R to methicilline, R to aminosides, fluoroquinolones, to rifampicie, to macrolides and the like
[7] = S. aureus phenotype Methicillin resistant
[8] = S. epidermidis phenotype Methicillin resistant

Compound	resistance (I, R) or sensitivity (S) (Entercoccus faecalis; E. faecalis phenotype Atypical)	resistance (I, R) or sensitivity (S) (Entercoccus faecalis; E. faecalis phenotype Wild)	resistant (I/R) or sensitive (S) (Escherichia coli; [2])	resistant (I/R) or sensitive (S) (Escherichia coli; [3])	resistant (I/R) or sensitive (S) (Escherichia coli; [4])	resistant (I/R) or sensitive (S) (Klebsiella pneumoniae; [5])	resistant (I/R) or sensitive (S) (Klebsiella pneumoniae; K. pneumoniae phenotype Wild)	resistance (I, R) or sensitivity (S) (Staphylococcus aureus; S. aureus phenotype Wild)	resistant (I/R) or sensitive (S) (Staphylococcus aureus; [6])	resistant (I/R) or sensitive (S) (Staphylococcus aureus; S. aureus phenotype Wild)	resistance (I, R) or sensitivity (S) ([1]; S. epidermidis phenotype Wild)	resistance (I, R) or sensitivity (S) (Staphylococcus aureus; [7])	resistance (I, R) or sensitivity (S) [1, 8]	other results
CC1(C)S[C@@H]2[C@H](NC(=O)[C@H](N)c3ccc(O)cc3)C(=O)N2[C@H]1C(=O)O [AMX, amoxicillin]	R	S	R	R	S	R	R	–	–	–	–	–	–	synergy zone between two antibiotic wafers placed side by side (Escherichia coli; E. coli cephalosporinase phenotype (FIGS. 2D, 2E)): absence of a zone of synergy; synergy zone between two antibiotic wafers placed side by side (Escherichia coli; E. coli strain of BSBL phenotype, champagne-cork shaped inhibition zone): presence of a zone of synergy; resistance (I, R) or sensitivity (S) (Escherichia coli; E. coli phenotype BSBL, six wafers): R; resistance (I, R) or sensitivity (S) (Escherichia coli; E. coli phenotype Carbapenemase, six wafers): R; resistance (I, R) or sensitivity (S) (Escherichia coli; E. coli phenotype Hl cephalosporinase, six wafers): R; resistance (I, R) or sensitivity (S) (Escherichia coli; E. coli phenotype Hl penicillinase, six wafers): R; resistance (I, R) or sensitivity (S) (Escherichia coli; E. coli phenotype Inhibitor resistant penicillinase, six wafers): R; resistance (I, R) or sensitivity (S) (Escherichia coli; E. coli phenotype Ll penicillinase, six wafers): R; resistance (I, R) or sensitivity (S) (Escherichia coli; E. coli phenotype Wild, six wafers in a circle): S; resistance (I, R) or sensitivity (S) (Proteus mirabilis; P. mirabilis phenotype Hl cephalosporinase): R; resistance (I, R) or sensitivity (S) (Proteus mirabilis; P. mirabilis phenotype Hl penicillinase): R; resistance (I, R) or sensitivity (S) (Proteus mirabilis; P. mirabilis phenotype Inhibitor resistant penicillinase): R; resistance (I, R) or sensitivity (S) (Proteus mirabilis; P. mirabilis phenotype Ll penicillinase): R; resistance (I, R) or sensitivity (S) (Proteus mirabilis; P. mirabilis phenotype Wild): S
CCC[C@@H]1C[C@@H](C(=O)N[C@@H]([C@H]2O[C@H](SC)[C@H](O)[C@@H](O)[C@H]2O)[C@H](C)Cl)N(C)C1 [CLI, clindamycin]	–	–	–	–	–	–	–	S	R	S	S	–	–	–
CO[C@@]1(NC(=O)Cc2cccs2)C(=O)N2C(C(=O)O)=C(COC(N)=O)CS[C@@H]21 [FOX, cefoxitine]	–	–	S	S	S	S	S	S	R	S	S	R	R	–
CN[C@H](CC(C)C)C(=O)N[C@H]1C(=O)N[C@@H](CC(N)=O)C(=O)N[C@H]2C(=O)N[C@H]3C(=O)N[C@H](C(=O)N[C@H](C(=O)O)c4cc(O)cc(O)c4-c4cc3ccc4O)[C@H](O)c3ccc(c(Cl)c3)Oc3cc2cc(c3O[C@@H]2O[C@H](CO)[C@@H](O)[C@H](O)[C@H]2O[C@H]2C[C@](C)(N)[C@H](O)[C@H](C)O2)Oc2ccc(cc2Cl)[C@H]1O [VAN, vancomycin]	S	S	–	–	–	–	–	S	S	S	S	S	S	–
colistin	–	–	S	S	S	S	S	–	–	–	–	–	–	resistance (I, R) or sensitivity (S) (Enterobacter aerogenes; E. aerogenes phenotype BSBL): S; resistance (I, R) or sensitivity (S) (Enterobacter aerogenes; E. aerogenes phenotype Wild): S; resistance (I, R) or sensitivity (S) (Enterobacter cloacea; E. cloacae phenotype BSBL): S; resistance (I, R) or sensitivity (S) (Enterobacter cloacea; E. cloacae phenotype Wild): S; resistance (I, R) or sensitivity (S) (Klebsiella oxytoca): S; resistance (I, R) or sensitivity (S) (Klebsiella pneumoniae; K. pneumoniae phenotype BSBL): S; resistance (I, R) or sensitivity (S) (Klebsiella pneumoniae; K. pneumoniae phenotype Carbapenemase): S; resistance (I, R) or sensitivity (S) (Klebsiella pneumoniae; K. pneumoniae phenotype Hl cephalosporinase): S; resistance (I, R) or sensitivity (S) (Klebsiella pneumoniae; K. pneumoniae phenotype Hl penicillinase): S; resistance (I, R) or sensitivity (S) (Klebsiella pneumoniae; K. pneumoniae phenotype Ll penicillinase): S; resistance (I, R) or sensitivity (S) (Klebsiella pneumoniae; K. pneumoniae phenotype Wild): S
gentamicin	S	S	R	R	S	R	R	S	R	S	S	S	S	–
teicoplanin [TEC]	S	S	–	–	–	–	–	S	S	S	S	S	S	–
trimethoprim-sulfamethoxazole (cotrimoxazole) [SXT]	–	–	R	R	S	R	R	S	R	S	S	S	S	–
